Activity calls are given as the source filed them. No cut-off for these calls is given here.
Assays:
[1] = system: Protein cereblon/Androgen receptor (Homo sapiens), P10275+Q96SW2 [UNDEFINED MUTATION]; assay: PROTAC activity at CRBN/Androgen receptor splice variant 7 in human VCaP cells assessed as induction of AR-V7 degradation at 0.1 uM incubated for 24 hrs by Western blot analysis relative to control; format: cell-based
[2] = target: T1, Protein cereblon/Androgen receptor (Homo sapiens, UniProt P10275+Q96SW2); assay: (§1) PROTAC activity at CRBN/Androgen receptor splice variant 7 in human 22Rv1 cells assessed as induction of AR-V7 degradation incubated for 24 hrs by Western blot analysis; format: cell-based
Target sequence in this assay (P10275 whole entry, looked up, change not shown, canonical isoform): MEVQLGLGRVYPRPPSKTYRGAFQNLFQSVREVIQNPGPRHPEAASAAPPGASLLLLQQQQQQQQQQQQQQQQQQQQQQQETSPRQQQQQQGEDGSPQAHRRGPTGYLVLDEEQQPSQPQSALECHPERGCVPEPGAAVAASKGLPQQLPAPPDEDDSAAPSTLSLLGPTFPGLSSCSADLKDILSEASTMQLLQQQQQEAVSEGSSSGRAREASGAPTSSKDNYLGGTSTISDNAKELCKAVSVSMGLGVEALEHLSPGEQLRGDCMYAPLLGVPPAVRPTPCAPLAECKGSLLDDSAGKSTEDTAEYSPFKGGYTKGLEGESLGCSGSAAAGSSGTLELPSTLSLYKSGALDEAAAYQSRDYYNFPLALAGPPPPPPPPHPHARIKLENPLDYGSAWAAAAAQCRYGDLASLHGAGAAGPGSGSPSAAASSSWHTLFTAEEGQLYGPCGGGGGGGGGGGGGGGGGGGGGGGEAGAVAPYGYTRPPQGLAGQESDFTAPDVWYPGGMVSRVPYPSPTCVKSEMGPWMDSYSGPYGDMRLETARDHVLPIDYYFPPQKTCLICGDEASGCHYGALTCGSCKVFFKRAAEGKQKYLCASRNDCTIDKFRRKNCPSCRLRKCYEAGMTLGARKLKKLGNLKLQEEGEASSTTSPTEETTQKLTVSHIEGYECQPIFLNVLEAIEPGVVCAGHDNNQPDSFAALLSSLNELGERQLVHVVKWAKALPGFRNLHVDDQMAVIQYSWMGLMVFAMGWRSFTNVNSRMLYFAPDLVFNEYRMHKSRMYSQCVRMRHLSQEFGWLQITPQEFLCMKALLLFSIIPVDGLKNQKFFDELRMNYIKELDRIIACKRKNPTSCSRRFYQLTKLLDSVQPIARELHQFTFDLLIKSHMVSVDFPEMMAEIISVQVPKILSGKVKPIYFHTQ
Target sequence in this assay (Q96SW2 whole entry, looked up, change not shown, canonical isoform): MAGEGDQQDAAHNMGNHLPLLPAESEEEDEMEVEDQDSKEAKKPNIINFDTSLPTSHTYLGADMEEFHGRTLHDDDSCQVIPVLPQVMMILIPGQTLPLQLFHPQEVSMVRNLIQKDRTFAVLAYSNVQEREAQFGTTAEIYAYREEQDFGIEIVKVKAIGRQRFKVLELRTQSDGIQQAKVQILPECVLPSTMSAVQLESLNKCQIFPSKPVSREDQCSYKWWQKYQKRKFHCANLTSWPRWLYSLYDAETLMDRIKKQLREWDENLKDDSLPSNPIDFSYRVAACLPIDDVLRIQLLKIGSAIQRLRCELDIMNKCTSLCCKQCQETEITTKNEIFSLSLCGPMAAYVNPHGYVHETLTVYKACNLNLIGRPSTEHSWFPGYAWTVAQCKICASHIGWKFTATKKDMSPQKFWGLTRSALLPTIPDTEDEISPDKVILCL

[3] = system: Protein cereblon/Androgen receptor (Homo sapiens), P10275+Q96SW2 [UNDEFINED MUTATION]; assay: as §1; format: cell-based
[4] = target: T1, Protein cereblon/Androgen receptor; assay: PROTAC activity at CRBN/AR in human LNCaP cells assessed as decrease in PSA mRNA level at 10 to 100 nM incubated for 24 hrs by qRT-PCR analysis; format: cell-based; details: dose 10-100 nM
Target sequence in this assay (P10275 whole entry, looked up, canonical isoform): as the sequence (P10275 whole entry, looked up, change not shown, canonical isoform) above
Target sequence in this assay (Q96SW2 whole entry, looked up, canonical isoform): as the sequence (Q96SW2 whole entry, looked up, change not shown, canonical isoform) above

[5] = system: Protein cereblon/Androgen receptor (Homo sapiens), P10275+Q96SW2 [UNDEFINED MUTATION]; assay: PROTAC activity at CRBN/Androgen receptor splice variant 7 in human 22Rv1 cells assessed as induction of AR-V7 degradation at 20 nM incubated for 1 hrs by Western blot analysis (reference value: 0%); format: cell-based
[6] = target: T1, Protein cereblon/Androgen receptor; assay: PROTAC activity at CRBN/AR in human Enzalutamide-resistant LNCaP cells assessed as induction of androgen receptor degradation at 1 to 300 nM by Western blot analysis; format: cell-based; details: dose 1-300 nM
Target sequence in this assay (P10275 whole entry, looked up, canonical isoform): as the sequence (P10275 whole entry, looked up, change not shown, canonical isoform) above
Target sequence in this assay (Q96SW2 whole entry, looked up, canonical isoform): as the sequence (Q96SW2 whole entry, looked up, change not shown, canonical isoform) above

[7] = AUC in male ICR mouse at 2 mg/kg, iv by LC-MS/MS analysis; format: ADME, organism-based; details: in vivo
[8] = system: Protein cereblon/Androgen receptor (Homo sapiens), P10275+Q96SW2 [UNDEFINED MUTATION]; assay: PROTAC activity at CRBN/Androgen receptor splice variant 7 in human VCaP cells assessed as induction of AR-V7 degradation by measuring maximal efficacy incubated for 24 hrs by Western blot analysis relative to control; format: cell-based
[9] = target: T2, Protein cereblon/Eukaryotic peptide chain release factor GTP-binding subunit ERF3A (Homo sapiens, UniProt Q96SW2+P15170); assay: Molecular glue activity at CRBN/GSPT1 in human VCaP cells assessed as induction of GSPT1 degradation at 20 nM measured after 6 hrs by Western blot analysis; format: cell-based
Target sequence in this assay (P15170 whole entry, looked up): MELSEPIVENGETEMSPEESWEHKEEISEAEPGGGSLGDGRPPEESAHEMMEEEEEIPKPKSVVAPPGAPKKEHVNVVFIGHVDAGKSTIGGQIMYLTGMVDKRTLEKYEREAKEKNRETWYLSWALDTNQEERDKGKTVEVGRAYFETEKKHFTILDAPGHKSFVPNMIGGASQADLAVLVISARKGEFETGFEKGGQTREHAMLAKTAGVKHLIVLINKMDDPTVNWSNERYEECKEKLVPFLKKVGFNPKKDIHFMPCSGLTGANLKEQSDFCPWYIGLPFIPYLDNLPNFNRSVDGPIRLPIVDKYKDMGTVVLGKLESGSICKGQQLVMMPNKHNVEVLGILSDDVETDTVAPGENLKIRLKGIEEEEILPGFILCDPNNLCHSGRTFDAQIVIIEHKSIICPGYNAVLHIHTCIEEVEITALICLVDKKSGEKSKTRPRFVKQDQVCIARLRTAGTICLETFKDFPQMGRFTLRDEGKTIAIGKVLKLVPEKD
Target sequence in this assay (Q96SW2 whole entry, looked up): as the sequence (Q96SW2 whole entry, looked up, change not shown, canonical isoform) above

CWR22R [10] = assay: Downregulation of MT-ATP8 gene expression in human 22Rv1 cells at 3 nM incubated for 24 hrs by Volcano plot analysis; format: functional, cell-based
[11] = target: T1, Protein cereblon/Androgen receptor; assay: PROTAC activity at CRBN/AR in human VCaP cells assessed as induction of AR degradation at 50 nM preincubated with MG132 followed by compound addition and measured after 12 hrs by Western blot analysis; format: cell-based
Target sequence in this assay (P10275 whole entry, looked up, canonical isoform): as the sequence (P10275 whole entry, looked up, change not shown, canonical isoform) above
Target sequence in this assay (Q96SW2 whole entry, looked up, canonical isoform): as the sequence (Q96SW2 whole entry, looked up, change not shown, canonical isoform) above

LNCaP [12] = assay: Induction of apoptosis in human LNCaP cells assessed as increase in cleaved PARP expression incubated for 24 hrs by Western blot analysis; format: functional, cell-based; details: dose 1-100 nM
CWR22R [13] = assay: Effect on GSPT1 mRNA expression in human 22Rv1 cells at 1 to 10 nM incubated for 24 hrs by RT-PCR analysis; format: functional, cell-based; details: dose 1-10 nM
[14] = target: T1, Protein cereblon/Androgen receptor; assay: PROTAC activity at CRBN/AR in human LNCaP cells assessed as decrease in FKBP51 protein level incubated for 24 hrs by Western blot analysis; format: cell-based; details: dose 1-100 nM
Target sequence in this assay (P10275 whole entry, looked up, canonical isoform): as the sequence (P10275 whole entry, looked up, change not shown, canonical isoform) above
Target sequence in this assay (Q96SW2 whole entry, looked up, canonical isoform): as the sequence (Q96SW2 whole entry, looked up, change not shown, canonical isoform) above

[15] = target: T2, Protein cereblon/Eukaryotic peptide chain release factor GTP-binding subunit ERF3A; assay: Molecular glue activity at CRBN/GSPT1 in human VCaP cells assessed as induction of GSPT1 degradation incubated for 24 hrs by Western blot analysis; format: cell-based
[16] = target: T1, Protein cereblon/Androgen receptor; assay: PROTAC activity at CRBN/AR in human 22Rv1 cells assessed as induction of AR degradation at 20 nM incubated for 6 hrs by Western blot analysis (reference value: 0 %); format: cell-based
Target sequence in this assay (P10275 whole entry, looked up, canonical isoform): as the sequence (P10275 whole entry, looked up, change not shown, canonical isoform) above
Target sequence in this assay (Q96SW2 whole entry, looked up, canonical isoform): as the sequence (Q96SW2 whole entry, looked up, change not shown, canonical isoform) above

[17] = target: T1, Protein cereblon/Androgen receptor; assay: PROTAC activity at CRBN/AR in human 22Rv1 cells assessed as induction of AR degradation at 20 nM incubated for 1 hrs by Western blot analysis (reference value: 0 %); format: cell-based
Target sequence in this assay (P10275 whole entry, looked up, canonical isoform): as the sequence (P10275 whole entry, looked up, change not shown, canonical isoform) above
Target sequence in this assay (Q96SW2 whole entry, looked up, canonical isoform): as the sequence (Q96SW2 whole entry, looked up, change not shown, canonical isoform) above

VCaP = assay: Antiproliferative activity against AR-dependent human VCaP cells assessed as cell growth inhibition incubated for 72 hrs by Celltiter-lumi luminescent cell viability assay; format: functional, cell-based
[18] = system: Protein cereblon/Androgen receptor (Homo sapiens), P10275+Q96SW2 [UNDEFINED MUTATION]; assay: PROTAC activity at CRBN/Androgen receptor splice variant 7 in human 22Rv1 cells assessed as induction of AR-V7 degradation at 20 nM incubated for 18 hrs by Western blot analysis (reference value: 0%); format: cell-based
[19] = target: T1, Protein cereblon/Androgen receptor; assay: PROTAC activity at CRBN/AR in human 22Rv1 cells assessed as induction of AR degradation at 20 nM incubated for 24 hrs by Western blot analysis (reference value: 0 %); format: cell-based
[20] = target: T1, Protein cereblon/Androgen receptor; assay: PROTAC activity at CRBN/AR in human LNCaP cells assessed as induction of AR degradation at 20 nM by Western blot analysis; format: cell-based; details: time 1-36 hrs
[21] = Antiproliferative activity against human Enzalutamide-resistant LNCaP cells assessed as cell growth inhibition incubated for 72 hrs by Celltiter-lumi luminescent cell viability assay; format: functional, cell-based
[22] = Cytotoxicity against human THLE-2 cells assessed as cell growth inhibition incubated for 72 hrs by Celltiter-lumi luminescent cell viability assay; format: toxicity, cell-based
[23] = target: T1, Protein cereblon/Androgen receptor; assay: PROTAC activity at CRBN/AR in human 22Rv1 cells assessed as induction of AR degradation at 0.01 uM incubated for 24 hrs by Western blot analysis relative to control; format: cell-based
LNCaP [24] = assay: Induction of apoptosis in human LNCaP cells assessed as increase in cleaved caspase-3 expression incubated for 24 hrs by Western blot analysis; format: functional, cell-based; details: dose 1-100 nM
[25] = target: T1, Protein cereblon/Androgen receptor; assay: PROTAC activity at CRBN/AR in human LNCaP cells assessed as decrease in TMPRSS2 mRNA level at 10 to 100 nM incubated for 24 hrs by qRT-PCR analysis; format: cell-based; details: dose 10-100 nM
[26] = target: T1, Protein cereblon/Androgen receptor; assay: PROTAC activity at CRBN/AR in human LNCaP cells assessed as decrease in PSA protein level incubated for 24 hrs by Western blot analysis; format: cell-based; details: dose 1-100 nM
[27] = system: Protein cereblon/Androgen receptor (Homo sapiens), P10275+Q96SW2 [UNDEFINED MUTATION]; assay: PROTAC activity at CRBN/Androgen receptor splice variant 7 in human Enzalutamide-resistant VCaP cells assessed as induction of AR-V7 degradation at 1 to 300 nM by Western blot analysis; format: cell-based; details: dose 1-300 nM
CWR22R [28] = assay: Downregulation of GTPBP6 gene expression in human 22Rv1 cells at 3 nM incubated for 24 hrs by Volcano plot analysis; format: functional, cell-based
DU-145 = assay: Antiproliferative activity against AR-independent human DU-145 cells assessed as cell growth inhibition incubated for 72 hrs by Celltiter-lumi luminescent cell viability assay; format: functional, cell-based; details: DU-145, 72 h
[29] = target: T1, Protein cereblon/Androgen receptor; assay: PROTAC activity at CRBN/AR in human 22Rv1 cells assessed as decrease in FKBP51 protein level incubated for 24 hrs by Western blot analysis; format: cell-based; details: dose 1-10 nM
CWR22R [30] = assay: Effect on androgen receptor mRNA expression in human 22Rv1 cells at 1 to 10 nM incubated for 24 hrs by RT-PCR analysis; format: functional, cell-based; details: dose 1-10 nM

Protein cereblon/Androgen receptor (Homo sapiens), P10275+Q96SW2 [UNDEFINED MUTATION], sequence (P10275 whole entry, looked up, change not shown, canonical isoform): as the sequence (P10275 whole entry, looked up, change not shown, canonical isoform) above
Protein cereblon/Androgen receptor (Homo sapiens), P10275+Q96SW2 [UNDEFINED MUTATION], sequence (Q96SW2 whole entry, looked up, change not shown, canonical isoform): as the sequence (Q96SW2 whole entry, looked up, change not shown, canonical isoform) above

SMILES: COc1ccc(C(C)(C)c2cc(Cl)c(OCC3CCN(C(=O)CCCCCNc4ccc5c(c4)C(=O)N(C4CCC(=O)NC4=O)C5=O)CC3)c(C#N)c2)cc1 (stereo not drawn)
- Activity [1]: 81.3%
- DC50 [2]: 3 nM
- Activity [3]: Dose-dependent-effect
- Activity [4]: Active
- Activity [5]: 13.3%
- Activity [6]: Active
- AUC [7]: 1850 ng·h/mL
- Emax [8]: 77.9%
- Activity [9]: Active
- Activity (CWR22R [10]): Active
- Activity [11]: inactive
- Activity (LNCaP [12]): Dose-dependent-effect
- Activity (CWR22R [13]): Minimal_effect
- Activity [14]: Dose-dependent-effect
- Activity [15]: Dose-dependent-effect
- DC50 [15]: 0.6 nM
- Activity [16]: 49.7%
- Activity [17]: 49%
- IC50 (VCaP): 1.5 nM
- Activity [18]: 91.4%
- Activity [19]: 94.1%
- Activity [20]: Time-dependent-effect
- IC50 [21]: 25.1 nM
- IC50 at 72 h [22]: > 10 µM
- Activity [23]: 75.2%
- Activity (LNCaP [24]): Dose-dependent-effect
- Activity [25]: Active
- Activity [26]: Dose-dependent-effect
- Activity [27]: Active
- Activity (CWR22R [28]): Active
- IC50 (DU-145): 882 nM
- Activity [29]: Dose-dependent-effect
- Activity (CWR22R [30]): Minimal_effect

— ChEMBL document CHEMBL6177998, “Rational Design of Dual Degraders by Incorporating Molecular Glue Structural Features into PROTAC Degraders” (J Med Chem, 2025)
